Consider nine compounds from patent US20100029615A1, “BENZIMIDAZOLE DERIVATIVES” (priority 2006, published 2010).

Counter-ions that a name gives are not always drawn.

As usually defined, the inhibition is the drop in the measured response relative to a control, in per cent.

One assay deals with T1, SMO (Mus musculus, UniProt P56726).
T1 construct: endogenous in cells; host or cells: C3H10T1/2 (ATCC #CCL-226)
T1 sequence (P56726 33-793): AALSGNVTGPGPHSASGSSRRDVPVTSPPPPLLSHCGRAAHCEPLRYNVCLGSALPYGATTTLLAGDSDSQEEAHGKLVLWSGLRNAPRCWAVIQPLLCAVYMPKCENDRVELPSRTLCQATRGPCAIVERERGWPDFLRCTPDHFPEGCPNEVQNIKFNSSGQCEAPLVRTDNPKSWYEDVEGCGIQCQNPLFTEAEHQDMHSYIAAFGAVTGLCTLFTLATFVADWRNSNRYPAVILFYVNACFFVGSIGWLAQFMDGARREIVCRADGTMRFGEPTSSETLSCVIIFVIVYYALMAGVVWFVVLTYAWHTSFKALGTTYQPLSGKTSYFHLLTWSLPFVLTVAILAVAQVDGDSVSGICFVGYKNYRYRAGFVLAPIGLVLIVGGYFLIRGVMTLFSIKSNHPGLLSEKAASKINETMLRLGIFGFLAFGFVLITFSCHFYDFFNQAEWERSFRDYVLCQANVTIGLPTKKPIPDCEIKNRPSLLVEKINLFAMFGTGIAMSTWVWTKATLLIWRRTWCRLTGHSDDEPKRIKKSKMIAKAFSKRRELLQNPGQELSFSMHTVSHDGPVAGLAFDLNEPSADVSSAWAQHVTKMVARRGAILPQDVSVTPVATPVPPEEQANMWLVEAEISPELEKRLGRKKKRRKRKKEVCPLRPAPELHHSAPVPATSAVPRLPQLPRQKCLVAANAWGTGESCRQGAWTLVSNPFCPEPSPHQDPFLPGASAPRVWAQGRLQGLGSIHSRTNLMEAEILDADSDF
The assay can be described thus: Smoothened (SMO)/Sonic Hedgehog (SHh) Transient Transcriptional Activation Assay (Gli-luciferase reporter in C3H10T1/2 cells). The format is cell-based, murine. The note with it: 2 μM test compound, SHh 250 ng/ml, 20 hrs, HCl, 2 µM. In outline: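 C3H10T1/2 cells transiently transfected with a 10× murine Gli-responsive firefly luciferase reporter plus pEGFP, serum-starved 20 h in 0.5% calf serum, then treated with compounds (2 uM–2 nM final) and 250 ng/ml recombinant human SHh for 20 h at 37 °C. Read-out: Dual-Glo luminescence.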
Background: A reporter such as luciferase makes a cellular process visible.
In the case of `O=C(NC12CCCC(c3nc4cc(C(F)(F)F)ccc4[nH]3)(C1)C2)c1cc2c(cn1)OCCO2` [Example 264, N-{5-[5-(trifluoromethyl)-1H-benzimidazol-2-yl]bicyclo[3.1.1]hept-1-yl}-2,3-dihydro[1,4]di-oxino[2,3-c]pyridine-7-carboxamide HCl], the “SMO CELL % INHIBITION @ 2 μM” value was 94.31%.

Still in this assay, the particulars now being: C3H 10T1/2, 2 μM test compound, SHh 250 ng/ml, 20 hrs, read-out: SMO CELL % INHIBITION @ 2 μM.
With `CC(=O)N[C@H](Cc1ccccc1)C(=O)NC1CCCC(c2nc3ccccc3[nH]2)C1` (stereo partly drawn) [Example 123, Nalpha-acetyl-N-[3-(1H-benzimidazol-2-yl)cyclohexyl]-D-phenylalanin-amide triflouroacetate], the inhibition at 2 µM stood at 83%.

With `COc1cc(OC)cc(C(=O)N[C@H]2CCC[C@H](c3nc4ccccc4[nH]3)C2)c1` [Example 252, N-(3-(1H-benzo[d]imidaz-ol-2-yl)cyclohexyl)-3,5-dimethoxybenz-amide HCl], the inhibition at 2 µM came out at 46%.

As for `CCn1nc(C(C)C)cc1C(=O)NC1CCCC(c2nc3ccccc3[nH]2)C1` (stereo not drawn) [Example 146, N-[3-(1H-benzimidazol-2-yl)cyclohexyl]-1-ethyl-3-isopropyl-1H-pyrazole-5-carboxamide triflouroacetate], the inhibition at 2 µM was 61%.

In the case of `O=C(NC12CCCC(c3nc4cc(C(F)(F)F)ccc4[nH]3)(C1)C2)c1ccc2c(c1)OCCO2` [Example 257, N-{5-[5-(trifluoromethyl)-1H-benzimidazol-2-yl]bicyclo[3.1.1]hept-1-yl}-2,3-dihydro-1,4-benzodioxine-6-carboxamide], the inhibition at 2 µM was determined as 107%.

For the compound `O=C(N[C@@H]1CCC[C@H](c2nc3ccccc3[nH]2)C1)c1ccc2c(c1)OCO2` [Example 186, N-[(1R,3S)-3-(1H-benzimidazol-2-yl)cyclohexyl]-1,3-benzodioxole-5-carboxamide triflouroacetate], the inhibition at 2 µM was 59%.

As for `N#Cc1ccc(NC(=O)NC23CCCC(c4nc5ccccc5[nH]4)(C2)C3)cc1` [Example 256, 1-(5-(1H-benzo[d]imidaz-ol-2-yl)bicyclo[3.1.1]heptan-1-yl)-3-(4-cyanophenyl)-urea HCl], the inhibition at 2 µM is 94%.

`Cc1cc2nc(C3CCCC(NC(=O)c4ccc5c(c4)OCCO5)C3)[nH]c2cc1C` (stereo not drawn) [Example 80, N-[3-(5,6-dimethyl-1H-benzimidazol-2-yl)cyclohexyl]-2,3-dihydro-1,4-benzodioxine-6-carboxamide HCl]: the inhibition at 2 µM amounted to 103%.

Regarding `CN1C(=O)COc2ccc(C(=O)N[C@H]3CCC[C@H](c4nc5ccccc5[nH]4)C3)cc21` [Example 249, N-(3-(1H-benzo[d]imidaz-ol-2-yl)cyclohexyl)-4-methyl-3-oxo-3,4-dihydro-2H-benzo[d][1,4]ox-azine-6-carboxamide HCl], the inhibition at 2 µM was found to be 109%.
